Key:
[1] = target: T1, human glucagon receptor (Homo sapiens (Human), UniProt P47871); assay: Glucagon cAMP Assay (Cisbio cAMP detection); type: cell-based; details: CHOK1 cells stably transfected with the human glucagon receptor; block of glucagon induced cAMP production; Kb by modified Cheng-Prusoff equation
[2] = target: T1, human glucagon receptor; assay: Human Glucagon SPA Assay (binding of [125I]Glucagon-Cex); details: membrane from chem-1 cells stably transfected with the human glucagon receptor, Ki by Cheng-Prusoff equation

T1 sequence (P47871 26-477): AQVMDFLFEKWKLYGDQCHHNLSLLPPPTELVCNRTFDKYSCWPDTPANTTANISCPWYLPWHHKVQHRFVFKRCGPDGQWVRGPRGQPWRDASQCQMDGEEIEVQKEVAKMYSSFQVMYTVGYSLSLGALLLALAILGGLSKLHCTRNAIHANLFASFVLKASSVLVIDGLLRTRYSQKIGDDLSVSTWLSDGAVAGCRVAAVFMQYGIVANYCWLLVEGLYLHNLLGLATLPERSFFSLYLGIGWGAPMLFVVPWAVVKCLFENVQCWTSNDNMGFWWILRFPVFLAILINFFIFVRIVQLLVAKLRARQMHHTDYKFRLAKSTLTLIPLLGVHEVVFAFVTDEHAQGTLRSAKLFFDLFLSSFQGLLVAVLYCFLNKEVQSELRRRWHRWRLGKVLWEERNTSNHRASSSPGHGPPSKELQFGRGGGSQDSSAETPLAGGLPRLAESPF

Structure (SMILES)	Kb [1]	Ki [2]
CCCC(Oc1ccc(-n2cc3cccc(Cl)c3n2)cc1)c1ccc(C(=O)NCCC(=O)O)cc1 (centres unmarked) [Example 139, (+\−)-3-(4-(1-(4-(7-chloro-2H-indazol-2-yl)phenoxy)butyl)benzamido)propanoic acid]	147 nM	0.354 µM
CCCC(Oc1ccc(-n2cc3cc(Cl)ccc3n2)cc1)c1ccc(C(=O)NCCC(=O)O)cc1 (centres unmarked) [Example 140, (+\−)-3-(4-(1-(4-(5-chloro-2H-indazol-2-yl)phenoxy)butyl)benzamido)propanoic acid]	154 nM	0.0628 µM
CCCC(Oc1cc(C)c(-n2cnc(C(F)(F)F)c2)c(C)c1)c1ccc(C(=O)NCCC(=O)O)cc1 (centres unmarked) [Example 141, (+\−)-3-(4-(1-(3,5-dimethyl-4-(4-(trifluoromethyl)-1H-imidazol-1-yl)phenoxy)butyl)benzamido)propanoic acid]	586 nM	0.0895 µM
CCCC(Oc1cc(C)c(-n2cc(C3CC3)cn2)c(C)c1)c1ccc(C(=O)NCCC(=O)O)cc1 (centres unmarked) [Example 144, (+\−)-3-(4-(1-(4-(4-cyclopropyl-1H-pyrazol-1-yl)-3,5-dimethylphenoxy)butyl)benzamido)propanoic acid]	174 nM	0.0626 µM
CCCC(Oc1cc(C)c(-n2cc(C(F)(F)F)nn2)c(C)c1)c1ccc(C(=O)NCCC(=O)O)cc1 (centres unmarked) [Example 148, (+\−)-3-(4-(1-(3,5-dimethyl-4-(4-(trifluoromethyl)-1H-1,2,3-triazol-1-yl)phenoxy)butyl)benzamido)propanoic acid]	423 nM	0.125 µM
CCCC(Oc1ccc(-n2cc(C(F)(F)F)cn2)cc1C)c1ccc(C(=O)NCCC(=O)O)cc1 (centres unmarked) [Example 159, 3-(4-(1-(2-methyl-4-(4-(trifluoromethyl)-1H-pyrazol-1-yl)phenoxy)butyl)benzamido)propanoic acid]	730 nM	0.315 µM
Cc1cc([C@@H](CC(C)C)Nc2ccc(C(=O)NCCC(=O)O)cn2)cc(C)c1-n1cc(C(F)(F)F)cn1 [Example 168, (R)-3-(6-((1-(3,5-dimethyl-4-(4-(trifluoromethyl)-1H-pyrazol-1-yl)phenyl)-3-methylbutyl)amino)nicotinamido)propanoic acid]	185 nM	0.0274 µM
Cc1cc([C@H](CC(C)C)Nc2ccc(C(=O)NCCC(=O)O)cn2)cc(C)c1-n1cc(C(F)(F)F)cn1 [Example 169, (S)-3-(6-((1-(3,5-dimethyl-4-(4-(trifluoromethyl)-1H-pyrazol-1-yl)phenyl)-3-methylbutyl)amino)nicotinamido)propanoic acid]	1150 nM	0.193 µM
CCC[C@H](Oc1cc(C)c(-n2cc3ccccc3n2)c(C)c1)c1ccc(C(=O)NCCC(=O)O)cc1 [Example 187, (S)-3-(4-(1-(4-(2H-indazol-2-yl)-3,5-dimethylphenoxy)butyl)benzamido)propanoic acid]	167 nM	0.0478 µM
CC1(C)CC(C(Nc2ccc(-n3cnc(C(F)(F)F)c3)nc2)c2ccc(C(=O)NCCC(=O)O)cc2)C1 (centres unmarked) [Example 188, (+\−)-3-(4-((3,3-dimethylcyclobutyl)(6-(4-(trifluoromethyl)-1H-imidazol-1-yl)pyridin-3-ylamino)methyl)benzamido)propanoic acid]	106 nM	0.0422 µM
CCCC(Oc1cc(C)c(-n2cc3ccccc3n2)c(C)c1)c1ccc(C(=O)NCCC(=O)O)cc1 (centres unmarked) [Example 189, (+\−)-3-(4-(1-(4-(2H-indazol-2-yl)-3,5-dimethylphenoxy)butyl)benzamido)propanoic acid]	370 nM	0.109 µM
CCCC(Nc1ccc(C(=O)NCCC(=O)O)cn1)c1ccc(-n2cc(C(F)(F)F)cn2)nc1 (centres unmarked) [Example 190, (+\−)-3-(6-(1-(6-(4-(trifluoromethyl)-1H-pyrazol-1-yl)pyridin-3-yl)butylamino)nicotinamido)propanoic acid]	978 nM	0.399 µM
O=C(O)CCNC(=O)c1ccc(C(Nc2cnc(-n3cnc(C(F)(F)F)c3)nc2)C2CCCC2)cc1 (centres unmarked) [Example 193, 3-(4-(cyclopentyl(2-(4-(trifluoromethyl)-1H-imidazol-1-yl)pyrimidin-5-ylamino)methyl)benzamido)propanoic acid]	84.1 nM	0.0447 µM

From US8507533B2, “Glucagon receptor modulators” (Pfizer Inc., priority 2011, dated 2013)
